In paper PMC8745486, “Removal of Persistent Sulfamethoxazole and Carbamazepine from Water by Horseradish Peroxidase Encapsulated into Poly(Vinyl Chloride) Electrospun Fibers” (International Journal of Molecular Sciences, 2021):
Structures can show the parent of a compound that is named as a salt.

System: T1, horseradish peroxidase (HRP)
T1 construct: gene PRXC1A
Details: read-out: Free HRP; free enzyme; pH 7, 25 °C; 0.1 to 5 mM ABTS; H2O2 not stated for the kinetic assay

Km: 1540 ± 130 µM
Compound: CCn1c(=NN=c2sc3cc(S(=O)(=O)O)ccc3n2CC)sc2cc(S(=O)(=O)O)ccc21 [ABTS, 2,2′-azino-bis(3-ehylbenzothiazoline-6-sulfonic acid) diammonium salt]
